Literature values, collected in patent US20090202609A1, “MEDICAL DEVICE WITH COATING COMPOSITION” (priority 2008, published 2009).

What was measured:
[1] = systemic
bacteria = details: effective systemic concentration

NC[C@H]1O[C@H](O[C@H]2[C@H](O)[C@@H](O[C@H]3O[C@H](CO)[C@@H](O)[C@H](N)[C@H]3O)[C@H](N)C[C@@H]2N)[C@H](N)C[C@@H]1O [tobramycin]
system-wide toxic concentration [1]: about 400 mcg/ml
effective concentration to actively control bacteria (bacteria): ≤ 4 µg/mL
